Where a SMILES comes first, the peptide text is derived from it.
Assays:
MDV [1] = format: cell-based, Marek's disease virus (MDV) strain RB1B
MDV [2] = test system: MDV; design: species or system Marek's disease virus (MDV) strain RB1B; details: in vivo
[3] = Gel filtration (GF) analysis of oligomeric state; format: physicochemical; details: for MW of polymer (GF peak molecular mass): Superdex G75, 20 mM Tris-HCl pH 8.0, estimated against protein standards; for Oligomeric state: aqueous solution, Superdex G75, 20 mM Tris-HCl pH 8.0, GF peak mass versus MS monomer mass
Protocol: Figure 5 GF results and structural analyses of five peptides. (top) GF analysis of peptides. The purified peptides were loaded onto the Superdex G75 column in a buffer solution of 20 mM Tris-HCl, pH 8.0. The peak molecular mass was estimated by comparison with the protein standards running on the same column. The clear peak of gHH1 occurred at about 12.1 kDa. This molecular mass matches the approximate sum of four molecules, indicating the formation of the homotetrameric structure. The peak of gHH2 occurred at about 7.2 kDa, indicating the formation of the homodimeric structure. The peak of gHH3 occurred at about 3.8 kDa, indicating the monomeric state. The peak of gHH5 occurred at about 9.1 kDa, indicating the formation of the homotrimeric structure. The peak of gBH1 occurred at about 10.7 kDa, indicating the formation of the homotrimeric structure. (bottom) Sequences and calculated oligomeric states of gHH1, gHH2, gHH3, gHH5, and gBH1 in aqueous solution. TEXT PRINTED IN THE PICTURE: gHH1: MW of monomer: 3184 Da; MW of polymer: 12.1 kDa; Oligomeric state: 4 (tetramer) | gHH2: MW of monomer: 3623 Da; MW of polymer: 7.2 kDa; Oligomeric state: 2 (dimer) | gHH3: MW of monomer: 3795 Da; MW of polymer: 3.8 kDa; Oligomeric state: 1 (monomer) | gHH5: MW of monomer: 3002 Da; MW of polymer: 9.1 kDa; Oligomeric state: 3 (trimer) | gBH1: MW of monomer: 3303 Da; MW of polymer: 10.7 kDa; Oligomeric state: 3 (trimer)
The purified cleaved peptides were loaded onto the Superdex G75 column in a solution buffer of 20 mM Tris-HCl, pH 8.0. The peak molecular mass was estimated by comparison with protein standards running on the same column. The peak fractions were collected and analysed by 15% SDS-PAGE. The analytical column was calibrated using a series of individual runs of standard molecular mass proteins as markers including bovine serum albumin (68 kDa), egg white albumin (43 kDa), […] (13.7 kDa), aprotinin (6.5 kDa), antimicrobial peptides (5 kDa), and vitamin B12 (1.4 kDa).

| Structure (SMILES) | inhibition of plaque formation (MDV [1]) [%] | plaque formation (MDV [1]) | lesion formation on CAMs (MDV [2]) | lesion formation on CAMs (words) (MDV [2]) | MW of polymer (GF peak molecular mass) [3] [kDa] | Oligomeric state [3] | plaque formation (result in words) (MDV [1]) |
| --- | --- | --- | --- | --- | --- | --- | --- |
| CC[C@H](C)[C@H](NC(=O)[C@H](CCC(=O)O)NC(=O)[C@H](CCSC)NC(=O)[C@H](CC(=O)O)NC(=O)[C@H](CO)NC(=O)[C@H](C)NC(=O)[C@H](CC(N)=O)NC(=O)[C@H](CCSC)NC(=O)[C@@H](N)Cc1c[nH]cn1)C(=O)N[C@@H](CCCCN)C(=O)N[C@@H](CO)C(=O)N[C@@H](Cc1ccc(O)cc1)C(=O)N[C@H](C(=O)N[C@@H](CC(N)=O)C(=O)N[C@@H](CCSC)C(=O)N[C@H](C(=O)N[C@@H](CCC(=O)O)C(=O)N[C@@H](CO)C(=O)N[C@H](C(=O)N[C@@H](CCC(=O)O)C(=O)N[C@@H](CCC(=O)O)C(=O)N[C@@H](CO)C(=O)N[C@@H](CO)C(=O)N[C@@H](CC(N)=O)C(=O)N[C@@H](Cc1ccc(O)cc1)C(=O)N[C@@H](CC(=O)O)C(=O)N[C@@H](Cc1ccccc1)C(=O)O)C(C)C)[C@@H](C)CC)[C@@H](C)CC [gHH1] (H-HMNASDMEIKSYINMIESVEESSNYDF-OH; N-terminus and C-terminus assumed) | 100 | completely inhibited | completely inhibited | significantly able to reduce lesion formation | 12.1 | 4 |  |
| CC[C@H](C)[C@H](NC(=O)[C@H](CCCCN)NC(=O)[C@@H](NC(=O)[C@H](Cc1ccc(O)cc1)NC(=O)[C@H](CCSC)NC(=O)[C@H](CCC(=O)O)NC(=O)[C@H](CCC(N)=O)NC(=O)[C@@H](NC(=O)[C@@H](NC(=O)[C@H](CC(C)C)NC(=O)[C@H](CCC(=O)O)NC(=O)[C@@H](NC(=O)[C@H](C)NC(=O)[C@@H](NC(=O)[C@@H](NC(=O)[C@H](Cc1c[nH]cn1)NC(=O)[C@H](CCC(=O)O)NC(=O)[C@H](CCC(=O)O)NC(=O)[C@@H](NC(=O)[C@@H](N)CS)[C@@H](C)O)[C@@H](C)CC)C(C)C)[C@@H](C)O)C(C)C)[C@@H](C)CC)[C@@H](C)CC)C(=O)N[C@@H](CC(N)=O)C(=O)N[C@H](C(=O)N[C@@H](CCCCN)C(=O)N[C@@H](CC(N)=O)C(=O)N[C@@H](CO)C(=O)N1CCC[C@H]1C(=O)O)C(C)C [gHH5] (H-CTEEHIVATELVIQEMYIKINVKNSP-OH; N-terminus and C-terminus assumed) |  | ~13% |  | significantly able to reduce lesion formation | 9.1 | 3 |  |
| CC[C@H](C)[C@H](NC(=O)[C@H](C)NC(=O)[C@H](C)NC(=O)[C@H](CCC(=O)O)NC(=O)[C@H](C)NC(=O)[C@H](CCC(=O)O)NC(=O)[C@H](CCCNC(=N)N)NC(=O)[C@H](CCCCN)NC(=O)[C@@H](NC(=O)[C@H](CS)NC(=O)[C@H](CCC(N)=O)NC(=O)CNC(=O)[C@H](CC(C)C)NC(=O)[C@@H](NC(=O)[C@@H](NC(=O)[C@@H](N)CCCNC(=N)N)[C@@H](C)CC)[C@@H](C)CC)[C@@H](C)CC)C(=O)N[C@@H](CCC(=O)O)C(=O)N[C@@H](CCC(N)=O)C(=O)N[C@H](C(=O)N[C@@H](Cc1ccccc1)C(=O)N[C@@H](CCCNC(=N)N)C(=O)N[C@H](C(=O)N[C@@H](CCCCN)C(=O)N[C@@H](Cc1ccc(O)cc1)C(=O)N[C@@H](CC(N)=O)C(=O)N[C@@H](CC(=O)O)C(=O)N[C@@H](CO)C(=O)N[C@@H](Cc1c[nH]cn1)C(=O)O)[C@@H](C)O)[C@@H](C)CC [gBH1] |  | ~12% |  | significantly able to reduce lesion formation | 10.7 | 3 |  |
| CC[C@H](C)[C@H](NC(=O)[C@H](Cc1ccc(O)cc1)NC(=O)CNC(=O)[C@H](CO)NC(=O)[C@H](CCC(N)=O)NC(=O)[C@H](Cc1ccccc1)NC(=O)[C@H](C)NC(=O)[C@H](CC(N)=O)NC(=O)[C@H](CCCNC(=N)N)NC(=O)[C@@H](NC(=O)[C@H](CO)NC(=O)[C@H](C)NC(=O)[C@@H](NC(=O)[C@H](CC(C)C)NC(=O)[C@H](CO)NC(=O)[C@H](CCSC)NC(=O)[C@H](Cc1ccccc1)NC(=O)[C@H](CC(C)C)NC(=O)[C@H](CCCNC(=N)N)NC(=O)[C@@H](NC(=O)[C@@H](NC(=O)[C@@H](NC(=O)[C@@H](N)C(C)C)C(C)C)[C@@H](C)O)[C@@H](C)O)C(C)C)C(C)C)C(=O)N[C@@H](CO)C(=O)N[C@@H](Cc1ccccc1)C(=O)N[C@@H](CC(=O)O)C(=O)N[C@@H](CCC(=O)O)C(=O)N[C@H](C(=O)N[C@H](C(=O)N[C@@H](CCCCN)C(=O)N[C@H](C(=O)N[C@@H](CCC(=O)O)C(=O)O)[C@@H](C)O)[C@@H](C)CC)[C@@H](C)CC [gHH2] (H-VVTTRLFMSLVASVRNAFQSGYISFDEIIKTE-OH; N-terminus and C-terminus assumed) |  |  |  | significantly able to reduce lesion formation | 7.2 | 2 | completely inhibited |
| CC[C@H](C)[C@H](NC(=O)[C@H](CO)NC(=O)[C@H](CC(C)C)NC(=O)[C@H](CO)NC(=O)[C@H](C)NC(=O)[C@@H](NC(=O)[C@H](CC(N)=O)NC(=O)[C@H](CCCCN)NC(=O)[C@H](CO)NC(=O)[C@H](C)NC(=O)[C@H](CC(N)=O)NC(=O)[C@@H](NC(=O)[C@@H](NC(=O)[C@@H](NC(=O)[C@H](CCCCN)NC(=O)[C@H](CCCNC(=N)N)NC(=O)[C@@H](NC(=O)[C@H](CC(C)C)NC(=O)[C@H](CO)NC(=O)[C@H](CCCCN)NC(=O)[C@@H](NC(=O)[C@@H](NC(=O)[C@H](CC(=O)O)NC(=O)[C@H](C)NC(=O)[C@@H](N)CC(N)=O)[C@@H](C)CC)[C@@H](C)CC)[C@@H](C)CC)[C@@H](C)O)[C@@H](C)CC)[C@@H](C)CC)[C@@H](C)O)C(=O)N[C@@H](CC(C)C)C(=O)N[C@@H](CCC(N)=O)C(=O)N[C@@H](Cc1c[nH]cn1)C(=O)N[C@@H](CC(C)C)C(=O)N[C@@H](Cc1ccc(O)cc1)C(=O)N[C@H](C(=O)N[C@@H](CC(C)C)C(=O)N[C@@H](CCCNC(=N)N)C(=O)N[C@@H](CO)C(=O)O)C(C)C [gHH3] (H-NADIIKSLIRKTIINASKNTASLSILQHLYVLRS-OH; N-terminus and C-terminus assumed) |  | ~20% |  | significantly able to reduce lesion formation | 3.8 | 1 |  |

Source: paper PMC3113977, “Structural characteristics and antiviral activity of multiple peptides derived from MDV glycoproteins B and H” (Virology Journal, 2011)
